Consider eleven compounds from PubChem BioAssay (NCI).

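In this assay, cells in 96-well plates receive the compound at five concentrations for 48 hours. Endpoints are linearly interpolated between the surrounding concentrations. GI50 is the concentration that inhibits growth by half. TGI marks complete inhibition of growth.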 Some results are limits rather than exact numbers.

Some test systems named below: A549 NSCLC; CAKI-1 renal; MALME-3M melanoma; MCF7 breast; MOLT-4 leukemia; NCI-H23 lung; NCI-H460 lung; OVCAR-5 ovarian; SN12C renal; TK-10 renal.
What all share (assay): inhibition of tumour cell growth, NCI panel, 48 h

Take `Cc1ccc(S(=O)(=O)c2c(COC(=O)c3cccc(C)c3)c(-c3ccccc3)nn2C)cc1`: the GI50 was above 100 µM in the test on A549 NSCLC; above 100 µM with CAKI-1 renal; above 100000 nM with MALME-3M melanoma; above 100 µM in the test on MCF7 breast; above 100 µM in the test with MOLT-4 leukemia; above 100 µM with NCI-H23 lung. Further, the GI50 is above 100000 nM in the test with NCI-H460 lung, above 100 µM in the test on OVCAR-5 ovarian, above 100 µM in the test with SN12C renal and above 100 µM in the test with TK-10 renal. The TGI in the test on A549 NSCLC, with CAKI-1 renal, with MALME-3M melanoma, with MCF7 breast, with MOLT-4 leukemia and in the test on NCI-H23 lung was above 100 µM throughout. The TGI in the test on NCI-H460 lung, in the test with OVCAR-5 ovarian, in the test with SN12C renal and in the test with TK-10 renal was above 100 µM throughout.

With `COc1cc(OC)c2nc(C)c3c(c2c1)SCC3`, the TGI in the test on A549 NSCLC is 40.9 µM; in the test with CAKI-1 renal, 70.9 µM; in the test with MALME-3M melanoma it was 63.8 µM; in the test on MCF7 breast, 36.2 µM; with MOLT-4 leukemia it was above 100 µM; in the test with NCI-H23 lung, 58.6 µM. Also, the TGI with NCI-H460 lung came to 54.3 µM; in the test on OVCAR-5 ovarian, 80.2 µM; in the test with SN12C renal it was 57.9 µM; in the test with TK-10 renal, 38.5 µM.

As to `CSC1=C(N)C(=O)c2[nH]cc(CO)c2C1=N`, the GI50 in the test with A549 NSCLC was 0.136 µM; in the test on MALME-3M melanoma, 71.4 nM; with MCF7 breast, 0.16 µM; with MOLT-4 leukemia, 0.204 µM; in the test with NCI-H23 lung, 0.109 µM; with NCI-H460 lung, 154 nM. Moreover, the GI50 is 0.176 µM with OVCAR-5 ovarian, 0.16 µM in the test on SN12C renal and 1.37 µM with TK-10 renal. The TGI came to 0.331 µM in the test with A549 NSCLC; 0.192 µM with MALME-3M melanoma; 0.407 µM in the test on MCF7 breast; 0.475 µM in the test with MOLT-4 leukemia; 0.344 µM with NCI-H23 lung; 0.338 µM with NCI-H460 lung. Also, the TGI with OVCAR-5 ovarian turned out to be 0.326 µM; in the test on SN12C renal, 0.317 µM; in the test with TK-10 renal, 2.72 µM.

On to `O=C1NC(Nc2ccccc2)=NC(C(F)(F)F)(C(F)(F)F)N1`, for which the TGI in the test with A549 NSCLC, in the test on MALME-3M melanoma, in the test with MCF7 breast, in the test with MOLT-4 leukemia, in the test on NCI-H23 lung and in the test on NCI-H460 lung was above 100 µM in each case. Besides, the TGI in the test on OVCAR-5 ovarian, in the test with SN12C renal and in the test with TK-10 renal was above 100 µM each time.

For `O=[N+]([O-])c1ccc(-n2nnc(C3=NCCN3)c2-c2ccccc2)cc1`, the TGI in the test on A549 NSCLC, in the test on CAKI-1 renal, in the test on MALME-3M melanoma, in the test on MOLT-4 leukemia, with NCI-H23 lung and with NCI-H460 lung was above 100 µM throughout. Moreover, the TGI in the test on OVCAR-5 ovarian, with SN12C renal and with TK-10 renal was above 100 µM throughout.

With `Cc1nc(Nc2ccccc2)sc1C(=O)CC(=O)C(=O)Nc1c(C(C)C)cccc1C(C)C`, the TGI with A549 NSCLC, with CAKI-1 renal, with MALME-3M melanoma, in the test on MOLT-4 leukemia, with NCI-H23 lung and in the test on NCI-H460 lung was above 100 µM each time. The TGI with OVCAR-5 ovarian, in the test with SN12C renal and in the test with TK-10 renal was above 100 µM in each case.

For the compound `COc1cc(OC)c(C/C=C/c2ccccc2)cc1O`, the TGI with A549 NSCLC worked out at 46.6 µM; in the test on CAKI-1 renal, 40.9 µM; with MALME-3M melanoma, 30.5 µM; with MOLT-4 leukemia, 40.5 µM; in the test on NCI-H23 lung it was 35.2 µM; in the test on NCI-H460 lung, 31 µM. In addition, the TGI in the test with OVCAR-5 ovarian was 69.9 µM; in the test on SN12C renal it was 32.7 µM; in the test with TK-10 renal, 29.9 µM.

`C=C1CC2OC(=O)C(=C)C2C(O)C2C(=C)CCC12` (configuration not stated): the TGI with A549 NSCLC was found to be 32.2 µM; with CAKI-1 renal it was 19.7 µM; in the test with MALME-3M melanoma, 45.1 µM; in the test on MOLT-4 leukemia it was 11 µM; with NCI-H23 lung, 27 µM; with NCI-H460 lung it was 27.8 µM. The TGI was 24.7 µM in the test with OVCAR-5 ovarian, 18.1 µM in the test on SN12C renal and 28 µM in the test on TK-10 renal.

Take `CC(=O)N1CC(C)(C)c2c(C)c(O)c(C)c(C)c21`: the TGI in the test on A549 NSCLC, in the test on MCF7 breast, in the test with MOLT-4 leukemia, in the test with NCI-H23 lung, in the test with NCI-H460 lung and in the test on OVCAR-5 ovarian was above 100 µM each time. The TGI in the test on SN12C renal and in the test on TK-10 renal was above 100 µM throughout.

`COC1CC(O[C@H]2CC[C@@]3(C)[C@H](CC[C@@H]4[C@@H]3CC[C@]3(C)[C@@H](C5=CC(=O)OC5)[C@@H](OC(C)=O)C[C@]43O)C2)OC(C)C1O` (some centres not stated): the GI50 with A549 NSCLC is below 0.01 µM; with CAKI-1 renal it was below 0.01 µM; with MALME-3M melanoma, below 10 nM; in the test with MCF7 breast, below 0.01 µM; with MOLT-4 leukemia, below 0.01 µM; with NCI-H23 lung it was below 0.01 µM. The GI50 in the test with NCI-H460 lung was below 10 nM; in the test on OVCAR-5 ovarian it was below 0.01 µM; in the test with TK-10 renal, below 0.01 µM. Further, the TGI in the test with A549 NSCLC was below 0.01 µM; with CAKI-1 renal, below 0.01 µM; in the test with MALME-3M melanoma it was below 0.01 µM; in the test on MCF7 breast, below 0.0117 µM; in the test with MOLT-4 leukemia, below 0.01 µM; with NCI-H23 lung, below 0.01 µM. Further, the TGI with NCI-H460 lung, in the test on OVCAR-5 ovarian and with TK-10 renal was below 0.01 µM in each case.

Consider `Cc1c(C(=O)Nc2ccccc2)sc2ncn(Cc3cccc(Cl)c3)c(=O)c12`, for which the GI50 with A549 NSCLC was 29.6 µM; with CAKI-1 renal, 15.4 µM; with MCF7 breast, 10.6 µM; with MOLT-4 leukemia, 51.8 µM; in the test with NCI-H23 lung, 6.5 µM; in the test with NCI-H460 lung, above 100000 nM. Moreover, the GI50 was 27 µM in the test on OVCAR-5 ovarian, 20 µM in the test with SN12C renal and 11.7 µM in the test with TK-10 renal. The TGI with A549 NSCLC was 93.1 µM; in the test on CAKI-1 renal, 84.5 µM; in the test with MCF7 breast, above 100 µM; with MOLT-4 leukemia it was above 100 µM; with NCI-H23 lung it was above 100 µM; in the test on NCI-H460 lung it was above 100 µM. For the same compound, the TGI in the test on OVCAR-5 ovarian is 94.5 µM; in the test with SN12C renal, 85.1 µM; with TK-10 renal it was above 100 µM.
